The record followed here is patent US12161647B2, “Treating hearing loss” (Massachusetts Eye and Ear Infirmary, priority 2012, dated 2024).

The test system of assay [1] is inner ear spheres made from Math1-nGFP mice. In words: Hair cell differentiation from utricular spheres of neonatal Math1-nGFP reporter mice. The format is cell-based, mouse. Conditions: compared with DAPT, L-685458, MDL28170; normalized to DMSO. As to the method: The utricles and cochleae of 1- to 3-d-postnatal mice of both sexes were dissected, and after careful removal of the nerve trunk and mesenchymal tissues, were trypsinized and dissociated. Dissociated cells were centrifuged, and the pellet was resuspended and filtered through a 70 μm cell strainer (BD Biosciences Discovery Labware) in DMEM/F12 medium with N2/B27 supplement, EGF (20 ng/ml), IGF1 (50 ng/ml), bFGF (10 ng/ml), and heparan sulfate (50 ng/ml) (Sigma). The single cells were cultured in nonadherent Petri dishes (Greiner Bio-One) to initiate clonal growth of spheres (49). Spheres that formed after 2-3 d in culture were passaged every 4-6 d. […]
Cell counting for spheres was performed with MetaMorph software. The cell number was determined from DAPI- or Hoechst-positive nuclei. […] For explants, inner hair cells, outer hair cells, and supporting cells in the outer hair cell region were counted on cochlear whole mounts. […] High-power images of the full-length cochlea or cochlear explant cultures were assembled and analyzed in PhotoShop CS4 (Adobe). ImageJ software (NIH) was used to measure the total length of cochlear whole mounts and the length of individual counted segments. The total number of inner hair cells, outer hair cells, and supporting cells in the outer hair cell region was counted in each of four cochlear segments of 1200-1400 μm (apical, mid-apical, mid-basal, and basal). […]

The subject of assay [2] is Atoh1 mRNA. In words: qRT-PCR of Atoh1 in deafened mature cochlea after round window administration. The format is in vivo, mouse. The procedure: 4-week-old mice were exposed free-field, awake and unrestrained, in a small reverberant chamber (22). Acoustic trauma was produced by a 2 h exposure to an 8-16 kHz octave band noise presented at 116 dB SPL. The exposure stimulus was generated by a custom white-noise source, filtered (Brickwall Filter with a 60 dB/octave slope), amplified (Crown power amplifier), and delivered (JBL compression driver) through an exponential horn fitted securely to a hole in the top of a reverberant box.
4-week-old mice weighing 12 to 16 g were used. Before surgery, the animals were anesthetized with ketamine (20 mg/kg, i.p.) and xylazine (100 mg/kg, i.p.), and an incision was made posterior to the pinna near the external meatus after local administration of lidocaine (1%). […]
The organs of Corti were dissected in HBSS (Invitrogen) and stored in RNAlater (Ambion) at −80° C. until further use. […] Samples were analyzed in 96 wells in triplicate by qPCR (Applied Biosystems 7900HT), and PCR thermal cycling conditions were as follows: initial denaturation at 95° C. for 2 min, denaturation at 95° C. for 15 s, annealing/extension at 60° C. for 1 min for 45 cycles. […] Relative gene expression was analyzed by using the ΔΔCT method. Gene expression was calculated relative to 18S RNA, and the amount of cDNA applied was adjusted so that the Ct value for 18S RNA was between 8 and 11. […]
(In general: In qPCR the cycle at which signal appears reflects the starting amount.)

Turning to `C[C@H](NC(=O)[C@@H](O)c1cc(F)cc(F)c1)C(=O)N[C@@H]1C(=O)N(C)c2ccccc2-c2ccccc21` [LY411575, N-2((2S)-2-(3,5-difluorophenyl)-2-hydroxyethanoyl)-N1-((7S)-5-methyl-6-oxo-6,7-dihydro-5H-dibenzo[b,d]azepin-7-yl)-l-alaninamide], in assay [1], the “potency for hair cell induction (nGFP-positive cells to DAPI-positive cells) among the four γ-secretase inhibitors” value is recorded as “highest potency”. Further, the “Atoh1 expression above the level post-noise exposure” value in assay [2] (1 d after LY411575 treatment, round window niche) is recorded as 2.28 ×. Also, the Atoh1 expression entry in assay [2] (3 d after treatment, p<0.05) is given as “remained elevated”.
